Reference: paper PMC10442912 (2023)

Legend:
[1] = test system: CAP1 (DNA, aptamer) CGACATAGAGGATCCATCTTGGGGTGTGTAGTGTGTCG; test: fluorescence titration; conditions: 10 mM Mg2+; 20 mM Tris-HCl pH 7.8; CAP1 titrated into 2.5 μM ThT
[2] = test system: CAP1 (DNA, aptamer) CGACATAGAGGATCCATCTTGGGGTGTGTAGTGTGTCG; test: ITC; conditions: 300 mM Na+, 5 mM K+, 10 mM Mg2+; 50 mM Tris-HCl pH 7.8, 25 °C, preannealed
[3] = test system: CAP1 (DNA, aptamer) CGACATAGAGGATCCATCTTGGGGTGTGTAGTGTGTCG; test: ThT fluorescence displacement; conditions: 10 mM Mg2+; 50 mM Tris-HCl pH 7.8; 1 μM aptamer, 0.5 μM ThT displaced
[4] = test system: CAP3 (DNA, aptamer) CGACCTAGTGTCCATCGTTCAGTTCCGATTTCTGGTCG; test: ThT fluorescence displacement; conditions: 10 mM Mg2+; 50 mM Tris-HCl pH 7.8; 1 μM aptamer, 0.5 μM ThT displaced

Cc1ccc2c(c1)sc(-c1ccc(N(C)C)cc1)[n+]2C
Kd [1]: 2.3 µM

O=C(N[C@H](CO)[C@H](O)c1ccc([N+](=O)[O-])cc1)C(Cl)Cl
Kd [2]: 9.8 ± 0.5 µM | Kd [3]: 4.2 µM | Kd [4]: 46 µM
